What was measured:
EPO = test: Measurement of the secretion of EPO by Hep3B hepatocytes (ELISA); type: cell-based; conditions: Homo sapiens, supernatant of Hep3B cells, 18 hours under normoxia, concentration that produces 50% of the maximum response of this same compound
Procedure: (§1) The test is an ELISA test for measuring VEGF and EPO in the supernatant of Hep3B cells treated under hypoxia or with deferoxamine as controls or with the potential HIF activators. The test was adapted to a 96-well plate, allowing greater compound screening capacity.
(§2) 2.3.1 Experiment Plan • 1) Inoculation of the cells on D0 • 2) Adherence for 6 hours under normoxia • 3) Preparation and addition of the products (Biomek 2000 and FX) • 4) Incubation under normoxia for 18 hours • 5) EPO and VEGF assay in the supernatant on D+1
(§3) The cells are subcultured into 100 μl of culture medium (10% FCS) in black, opaque-bottomed 96-well plates (reference Costar 3916) at 30000 cells/well, with Multidrop.
(§4) The test products are prepared at 10^−2M in 100% DMSO and then diluted to […] in medium containing 0.1% FCS (6 μl in 194 μl of MEM). 200 μl of each compound are deposited in column 12 of a 96-well plate. Dilution ranges from 3×10^−4M to 3×10^−8M are prepared with Biomek 2000 (programme: range of 9 points in series). 100 μl of MEM 0.1% FCS and Deferoxamine 5×10^−3M are added as controls to column 3 and, respectively, to wells A,B,C,D & wells E,F,G,H
(§5) The medium of the cells inoculated the day before into 96-well plates is changed for 90 μl of medium containing 0.1% FCS and 10 μl are distributed with FX 96 from the 96-well DL plates to the cell plates.
(§6) The cell plates thus treated are placed for 18 hours in an incubator at 37° C. (ambient O2, 6% CO2).
(§7) The supernatants (80 μl) of the Hep3B cells in the 96-well plates treated with the potential HIF activators are recovered with a multichannel pipette for simultaneous assay of the VEGF and the EPO by ELISA according to the supplier's instructions (Kit EPO Mesoscale (ref K15122B-2)).
(§8) The activating activity of a compound with respect to HIF is given by the concentration that produces 50% of the maximum response of this same compound in Table IV.

HIF1-alpha = test: Measurement of the stabilization of HIF1-alpha in HEKEA cells (beta-galactosidase complementation); type: cell-based, human; conditions: HEKEA_HIF1-alphaPLBL cells, 6 hours under normoxia, luminescence; molar concentration that produces 50% of the maximum response of this same compound
Description: Furthermore, a subject of the invention is also a uniform test for the direct measurement by beta-galactosidase complementation of the amount of HIF1-alpha protein in the nucleus of cells, preferably HEK cells, after treating the said cells with one or more test compounds, which consists in: • (a) inoculating, preferably in 384-well plates, the said cells in a suitable culture medium, preferably 1% foetal calf serum (abbreviated as FCS); • (b) adding the test compound(s) at a suitable concentration in a suitable solvent to the cells previously inoculated in the said culture medium; preferably the test compounds are diluted in 0.1% FCS; • (c) incubating the said cells thus prepared in an indicator at about 37° C., advantageously for about 6 hours; • (d) lysing the cells with a lysis buffer containing a chemiluminescent substrate for beta-galactosidase; • (e) incubating in the absence of light, before reading and measuring the luminescence, which is a function of the beta-galactosidase activity.
The test is a cell test based on the principle of enzyme complementation, the enzyme used herein being beta-galactosidase. HEKEA cells are HEK cells stably expressing, and restricted in their nucleus, mutant beta-galactosidase (omega fragment, also known as EA) (line sold by DiscoverX). This construct makes it possible to obtain beta-galactosidase activity only when the protein comprising the Prolabel complementation fragment has migrated into the nucleus.
The protein of interest comprising the Prolabel fragment is in this case an HIF1-alpha or HIF1-alpha mutated at the two prolines 402 and 564 replaced with alanines, is C-terminal fused via molecular biology (DiscoverX vector sold by Clontech) with the small complementation peptide fragment (Prolabel or ED, about 4 kDa). The vector coding for the chimeric protein HIF1-alpha_Prolabel is then transfected into HEKEA cells to obtain stable clones (HEKEA_HIF1-alphaPLBL).
The amount of C-terminal Prolabel-“labelled” HIF1-alpha protein obtained after treating the cells to hypoxia or compounds that are potentially HIF activators is measured by adding to the cells a lysis buffer containing a chemiluminescent substrate for beta-galactosidase.
The measurement of the beta-galactosidase activity will be proportional to the amount of Prolabel and thus of HIF1-alpha that has migrated into the nucleus of the cells.
1.3.1 Experiment Plan • 1) Inoculation of the cells on D0 • 2) Adherence for 24 hours under normoxia • 3) Preparation and addition of the products (Biomek 2000 and FX) on D+1 • 4) Incubation under normoxia for 6 hours • 5) Reading of the plates (by luminescence)
The cells are inoculated with Multidrop in white, opaque-bottomed 384-well plates (Greiner ref 3704), in 30 μl of culture medium (1% FCS) a 10000 cells/well (cell plate).
The test products are prepared at 3×10^−2 M in 100% DMSO and then diluted to 3×10^−4 M in medium containing 0.1% FCS (10 μl in 990 μl of MEM). They are then deposited by hand into column 12 of a round-bottomed 96-well plate (200 μl of each compound) known as the dilution plate (dl). The complete DL plate of 3×10^−4 M to 10^−9 M is then prepared with Biomek 2000 (programme: range of 10 points in series). For the references and controls, 100 μl of DMEM containing 0.1% FCS are added to column 1, 100 μl of Deferoxamine 10^−3M to column 2, wells A B C D and 100 μl of Deferoxamine 5×10^−3 M to column 2, wells E F G H.
3.3 μL are taken from the DL plate by pipetting with a Biomek FX 96 and placed in horizontal duplicate (columns 1 to 24) in each 384-well cell plate (HEKEA_HIF1-alphaPLBL cell plate).
The cells are then placed for 6 hours in an incubator at 37° C. (ambient O2, 6% CO2).
The kit used is the Prolabel chemiluminescent kit (Ref 93-0001 DiscoverX). […]

VEGF = test: Measurement of the secretion of VEGF by Hep3B hepatocytes (ELISA); type: cell-based; conditions: Homo sapiens, supernatant of Hep3B cells, 18 hours under normoxia, concentration that produces 50% of the maximum response of this same compound
Procedure: as §1, §2, §3, §4, §5, §6, §7, §8

Row | melting point [°C] | EC50 (HIF1-alpha) [nM] | Structure (SMILES) | EC50 (EPO) [nM] | EC50 (VEGF) [nM]
1 | 262 | 8600 | O=c1c2c([nH]n1-c1ccc(S(=O)(=O)NC3CC3)cn1)CSC2 [Compound 16, N-cyclopropyl-6-(3-oxo-4,6-dihydro-1H-thieno[3,4-c]pyrazol-2(3H)-yl)pyridine-3-sulfonamide] | 3500 | 3000
2 | 254 | – | COc1ccnc(-n2[nH]c3c(c2=O)CSC3)c1 [Compound 59, 2-(4-methoxypyridin-2-yl)-1,2,4,6-tetrahydro-3H-thieno[3,4-c]pyrazol-3-one] | 2600 | 3100
3 | 257 | 4400 | CC(C)(C)NS(=O)(=O)c1ccc(-n2[nH]c3c(c2=O)CSC3)nc1 [Compound 18, N-tert-butyl-6-(3-oxo-4,6-dihydro-1H-thieno[3,4-c]pyrazol-2(3H)-yl)pyridine-3-sulfonamide] | 500 | 400
4 | 258 | 10000 | CC(C)NS(=O)(=O)c1ccc(-n2[nH]c3c(c2=O)CSC3)nc1 [Compound 17, 6-(3-oxo-4,6-dihydro-1H-thieno[3,4-c]pyrazol-2(3H)-yl)-N-(propan-2-yl)pyridine-3-sulfonamide] | 2900 | 2900
5 | 238 | 5500 | O=c1c2c([nH]n1-c1ccc(S(=O)(=O)NCc3ccco3)cn1)CSC2 [Compound 19, N-(furan-2-ylmethyl)-6-(3-oxo-4,6-dihydro-1H-thieno[3,4-c]pyrazol-2(3H)-yl)pyridine-3-sulfonamide] | 2400 | 2400
6 | – | 650 | CC(C)(C)OC(=O)c1ccc(-n2[nH]c3c(c2=O)CSC3)nc1 [Compound 30, tert-butyl 6-(3-oxo-4,6-dihydro-1H-thieno[3,4-c]pyrazol-2(3H)-yl)pyridine-3-carboxylate] | 1500 | 1800
7 | – | 1900 | CCc1ccnc(-n2[nH]c3c(c2=O)CSC3)c1 [Compound 61, sodium 2-(4-ethylpyridin-2-yl)-2,6-dihydro-4H-thieno[3,4-c]pyrazol-3-olate] | 2200 | 2800

Continued, compound first:

Row | Structure (SMILES) | melting point [°C] | EC50 (HIF1-alpha) [nM] | EC50 (EPO) [nM] | EC50 (VEGF) [nM]
8 | CCN(c1ccccc1)S(=O)(=O)c1ccc(-n2[nH]c3c(c2=O)COCC3)nc1 [Compound 25, N-ethyl-6-(3-oxo-1,4,6,7-tetrahydropyrano[4,3-c]pyrazol-2(3H)-yl)-N-phenylpyridine-3-sulfonamide] | 164 | 3300 | 2400 | 2500
9 | CCN(c1ccccc1)S(=O)(=O)c1ccc(-n2[nH]c3c(c2=O)CN(C(C)=O)CC3)nc1 [Compound 29, 6-(5-acetyl-3-oxo-1,3,4,5,6,7-hexahydro-2H-pyrazolo[4,3-c]pyridin-2-yl)-N-ethyl-N-phenylpyridine-3-sulfonamide] | 118 | 2500 | 2500 | 2600
10 | CCN(c1ccccc1)S(=O)(=O)c1ccc(-n2[nH]c3c(c2=O)CSC3)nc1 [Compound 9, N-ethyl-6-(3-oxo-4,6-dihydro-1H-thieno[3,4-c]pyrazol-2(3H)-yl)-N-phenylpyridine-3-sulfonamide] | 208 | 1400 | 700 | 660
11 | O=c1c2c([nH]n1-c1ccc(S(=O)(=O)N3CCCCCC3)cn1)CSC2 [Compound 26, 2-[5-(azepan-1-ylsulfonyl)pyridin-2-yl]-1,2,4,6-tetrahydro-3H-thieno[3,4-c]pyrazol-3-one] | 236 | 1500 | 1000 | 1300
12 | O=c1c2c([nH]n1-c1ccc(S(=O)(=O)N3CCCC3)cn1)CSC2 [Compound 15, 2-[5-(pyrrolidin-1-ylsulfonyl)pyridin-2-yl]-1,2,4,6-tetrahydro-3H-thieno[3,4-c]pyrazol-3-one] | 152 | 16000 | 2800 | 3000
13 | CN(C(C)(C)C)S(=O)(=O)c1ccc(-n2nc3c(c2O)CSC3)nc1 [Compound 36, sodium 2-{5-[tert-butyl(methyl)sulfamoyl]pyridin-2-yl}-2,6-dihydro-4H-thieno[3,4-c]pyrazol-3-olate] | – | 1200 | 1600 | 2000
14 | CCN(C(C)(C)C)S(=O)(=O)c1ccc(-n2nc3c(c2O)CSC3)nc1 [Compound 32, sodium 2-{5-[tert-butyl(ethyl)sulfamoyl]pyridin-2-yl}-2,6-dihydro-4H-thieno[3,4-c]pyrazol-3-olate] | – | 1300 | 2600 | 3200
15 | CCN(c1ccccc1)S(=O)(=O)c1ccc(-n2nc3c(c2O)N(Cc2ccccc2)C(=O)CC3)nc1 [Compound 35, sodium 4-benzyl-2-{5-[ethyl(phenyl)sulfamoyl]pyridin-2-yl}-5-oxo-4,5,6,7-tetrahydro-2H-pyrazolo[4,3-b]pyridin-3-olate] | – | 2500 | 1700 | 1100
16 | CCN(c1ccccc1)S(=O)(=O)c1ccc(-n2[nH]c3c(c2=O)CN(C(=O)OC(C)(C)C)CC3)nc1 [Compound 28, tert-butyl 2-[5-[ethyl(phenyl)sulfamoyl]pyridin-2-yl]-3-oxo-1,2,3,4,6,7-hexahydro-5H-pyrazolo[4,3-c]pyridine-5-carboxylate] | 192 | 1600 | 1000 | 1000
17 | O=c1c2c([nH]n1-c1ccc(S(=O)(=O)NC3CCCC3)cn1)CSC2 [Compound 20, N-cyclopentyl-6-(3-oxo-4,6-dihydro-1H-thieno[3,4-c]pyrazol-2(3H)-yl)pyridine-3-sulfonamide] | > 260 | 3400 | 1000 | 900
18 | CCN(c1ccccc1)S(=O)(=O)c1ccc(-n2[nH]c3c(c2=O)SCCC3)nc1 [Compound 24, N-ethyl-6-(3-oxo-3,5,6,7-tetrahydrothiopyrano[3,2-c]pyrazol-2(1H)-yl)-N-phenylpyridine-3-sulfonamide] | 198 | 3000 | 500 | 500
